The results in this text go back to patent US6610689B2, “HIV protease inhibitors based on amino acid derivatives” (priority 2001, dated 2003).

Usually Ki stands for the equilibrium dissociation constant of an inhibitor or competing ligand from its target.

A value given as a limit tells only on which side of the number the result lay.

The target of the first experiment is T1, HIV protease (Human immunodeficiency virus type 1 group M subtype B, UniProt P04585).
T1 construct: A third viral enzyme known as protease then cleaves the polyproteins
The experiment is described as follows: Enzymatic Assay for Determining the Inhibition Constant (Ki) of Synthetic Compounds Targeting the HIV Protease (fluorometric FRET assay). It counts as biochemical.
Settings: not given
From the text:
Enzymatic Assay for Determining the Inhibition Constant (Ki) of Synthetic Compounds Targeting the HIV Protease
This is a fluorometric assay based on the cleavage by protease of a substrate carrying a donor group (EDANS) and an acceptor group (DABCYL) on each side of the cleavage site, interacting together through fluorescence resonance energy transfer (FRET) as described by Matayoshi et al. (Science 247:[…], 1990).
After calculation of Vo and Vi, the inhibition constant (Ki) of the compound is determined using the equation of Henderson: [formula]
where Vo=the enzyme's initial velocity
Vi=the enzyme velocity in the presence of the inhibitory compound,
[I]=inhlibitor concentration, [S]=substrate concentration,
Km=Michaelis-Menten constant and Kiapp=apparent Ki
Graphs are traced and the Ki determined using GraphPad Prism software v. 3.0.
Regarding `Cc1ccc(S(=O)(=O)N(CC(C)C)[C@H](CO)CCCCNC(=O)[C@H](Cc2c[nH]c3ccccc23)NS(=O)(=O)c2cccs2)cc1` [Example 129, (2S,2′S) 2-N-Isobutyl-2-N-(4-methylbenzenesulfonyl)-6-N-[N′α-(2-thiophenesulfonyl)-S-tryptophanyl]-2,6-diaminohexanol], the Ki amounted to 1 nM. Regarding `CNC(=O)N[C@@H](Cc1ccccc1)C(=O)NCCCC[C@@H](C(=O)O)N(CC(C)C)S(=O)(=O)c1ccc(C)cc1` [Example 198, Nα-Isobutyl-Nα-(4-methylbenzenesulfonyl)-Nε-(N′α-methylaminocarbonyl-L-phenylalanyl)-L-lysine], the affinity corresponds to a Ki of 1.1 nM.

`Cc1ccc(S(=O)(=O)N(CC(C)C)[C@H](CO)CCCCNC(=O)[C@H](Cc2c[nH]c3ccccc23)NS(=O)(=O)c2ccc(N)cc2)cc1` [Example 161, (2S,2′S) 2-N-Isobutyl-2-N-(4-methylbenzenesulfonyl)-6-N-[N′α-(4-aminobenzenesulfonyl)-S-tryptophanyl]-2,6-diaminohexanol]: the Ki came out at 1.4 nM. On the same count and under the same terms, the result for `CC(C)CN([C@H](CO)CCCCNC(=O)[C@H](Cc1c[nH]c2ccccc12)NS(=O)(=O)c1ccccc1)S(=O)(=O)c1ccc(N)cc1` [Example 167, (2S,2′S) 2-N-(4-Aminobenzenesulfonyl)-2-N-isobutyl-6-N-(N′α-benzenesulfonyl-S-tryptophanyl)-2,6-diaminohexanol] reads 1.5 nM. Turning to `Cc1ccc(S(=O)(=O)NCC(=O)NCCCC[C@@H](C(=O)O)N(CC(C)C)S(=O)(=O)c2ccc(C)cc2)cc1` [Example 21, Nα-Isobutyl-Nα-(4-methylbenzenesulfonyl)-Nε-[N′α-(4-methylbenzenesulfonyl)-glycyl]-L-lysine], the inhibition constant (Ki) worked out at 21 nM. Compound `CC(C)CN([C@@H](CCCCNC(=O)[C@H](Cc1ccccc1)NS(=O)(=O)c1cccs1)C(=O)NN)S(=O)(=O)c1ccc(N)cc1` [Example 49, Nα-(4-Aminobenzenesulfonyl)-Nα-isobutyl-Nε-[N′α-(2-thiophenesulfonyl)-L-phenylalanyl]-L-lysine Hydrazide] yielded a Ki of 17 nM. In turn, `Cc1ccc(S(=O)(=O)N(CC(C)C)[C@@H](CCCCNC(=O)[C@H](Cc2c[nH]c3ccccc23)NS(=O)(=O)c2ccccc2)C(=O)O)cc1` [Example 4, Nα-Isobutyl-Nα-(4-methylbenzenesulfonyl)-Nε-(N′α-benzenesulfonyl-L-tryptophanyl)-L-lysine] registered a Ki of 1 nM. The compound `CCC[C@H](NS(=O)(=O)c1ccccc1)C(=O)NCCCC[C@@H](C(=O)O)N(CC(C)C)S(=O)(=O)c1ccc(C)cc1` [Example 14, Nα-Isobutyl-Nα-(4-methylbenzenesulfonyl)-Nε-[N′α-(benzenesulfonyl)-L-norvalyl]-L-lysine] yielded a Ki of 185 nM. In the case of `COC(=O)[C@H](CCCCNC(=O)[C@H](Cc1ccccc1)NS(=O)(=O)c1ccc(C)cc1)N(CC(C)C)S(=O)(=O)c1ccc(C)cc1` [Example 68, Nα-Isobutyl-Nα-(4-methylbenzenesulfonyl)-Nε-[N′α-(4-methylbenzenesulfonyl)-L-phenylalanyl]-L-lysine Methyl Ester], the Ki is above 300 nM. Compound `Cc1ccc(S(=O)(=O)N(CC(C)C)[C@@H](CCCCNC(=O)[C@H](Cc2c[nH]c3ccccc23)NS(=O)(=O)c2cccs2)C(=O)O)cc1` [Example 53, Nα-Isobutyl-Nα-(4-methylbenzenesulfonyl)-Nε-[N′α-(2-thiophenesulfonyl)-L-tryptophanyl]-L-lysine] yielded a Ki of 13 nM. Take `Cc1ccc(S(=O)(=O)N[C@@H](CCC(N)=O)C(=O)NCCCC[C@@H](C(=O)O)N(CC(C)C)S(=O)(=O)c2ccc(C)cc2)cc1` [Example 34, Nα-Isobutyl-Nα-(4-methylbenzenesulfonyl)-Nε-[N′α-(4-methylbenzenesulfonyl)-L-glutaminyl]-L-lysine]: the Ki was found to be 95 nM. On to `Cc1ccc(S(=O)(=O)N(CC(C)C)[C@@H](CCCCNC(=O)[C@H](Cc2ccccc2)NS(=O)(=O)c2cccs2)C(=O)NCCO)cc1` [Example 60, Nα-Isobutyl-Nα-(4-methylbenzenesulfonyl)-Nε-[N′α-(2-thiophenesulfonyl)-L-phenylalanyl]-L-lysine Ethanolamide], for which the Ki was above 300 nM. On the same count and under the same terms, the result for `Cc1ccc(S(=O)(=O)N(CC(C)C)[C@@H](CCCCNC(=O)[C@H](Cc2c[nH]c3ccccc23)NC(=O)CCc2ccccc2)C(=O)O)cc1` [Example 133, Nα-Isobutyl-Nα-(4-methylbenzenesulfonyl)-Nε-(N′α-dihydrocinnamoyl-L-tryptophanyl)-L-lysine] reads 0.606 nM. `COc1ccc(NC(=O)N[C@@H](Cc2ccccc2)C(=O)NCCCC[C@@H](C(=O)O)N(CC(C)C)S(=O)(=O)c2ccc(C)cc2)cc1` [Example 196, Nα-Isobutyl-Nα-(4-methylbenzenesulfonyl)-Nε-[N′α-(4-methoxyanilinecarbonyl)-L-phenylalanyl]-L-lysine]: the affinity corresponds to a Ki of 0.5 nM. The compound `Cc1ccc(S(=O)(=O)N(CC(C)C)[C@@H](CCCCNC(=O)[C@H](Cc2ccccc2)NC(=O)C(F)(F)F)C(=O)O)cc1` [Example 101, Nα-Isobutyl-Nα-(4-methylbenzenesulfonyl)-Nε-(N′α-trifluoroacetyl-L-phenylalanyl)-L-lysine] returned a Ki of 2.9 nM. For the compound `CC(C)CN([C@H](CO)CCCCNC(=O)[C@H](Cc1c[nH]c2ccccc12)NC(=O)C(C)C)S(=O)(=O)c1ccc(N)cc1` [Example 184, (2S,2′S) 2-N-(4-Aminobenzenesulfonyl)-2-N-isobutyl-6-N-(N′α-isobutyryl-S-tryptophanyl)-2,6-diaminohexanol], the Ki turned out to be 1.6 nM. Turning to `Cc1ccc(S(=O)(=O)N(CC(C)C)[C@H](CO)CCCCNC(=O)[C@H](Cc2ccccc2)NC(=O)C(C)(C)C)cc1` [Example 119, (2S,2′S) 2-N-Isobutyl-2-N-(4-methylbenzenesulfonyl)-6-N-(N′α-pivaloyl-S-phenylalanyl)-2,6-diaminohexanol], the affinity corresponds to a Ki of 3.9 nM. Turning to `Cc1ccc(S(=O)(=O)N[C@@H](CCCCN)C(=O)NCCCC[C@@H](C(=O)O)N(CC(C)C)S(=O)(=O)c2ccc(C)cc2)cc1` [Example 39, Nα-Isobutyl-Nα-(4-methylbenzenesulfonyl)-Nε-[N′α-(4-methylbenzenesulfonyl)-L-lysyl]-L-lysine], the Ki is above 300 nM. The same measure, in the same setting: the result for `COc1ccc(S(=O)(=O)N(CC(C)C)[C@H](CO)CCCCNC(=O)[C@H](Cc2c[nH]c3ccccc23)NC(C)=O)cc1` [Example 172, (2S,2′S) 2-N-Isobutyl-2-N-(4-methoxybenzenesulfonyl)-6-N-(N′α-acetyl-S-tryptophanyl)-2,6-diaminohexanol] reads above 300 nM. Regarding `Cc1ccc(S(=O)(=O)N[C@@H](Cc2c[nH]c3ccccc23)C(=O)NCCCC[C@@H](CO)N(CC(C)C)S(=O)(=O)c2ccc(N)cc2)cc1` [Example 145, (2S,2′S) 2-N-(4-Aminobenzenesulfonyl)-2-N-isobutyl-6-N-[N′α-(4-methylbenzenesulfonyl)-S-tryptophanyl]-2,6-diaminohexanol], affinity was put at a Ki of 1.9 nM.

The experiment is the same for the next values; noted with them: Table 1, compounds of formula I; read-out: Ki (anti-protease activity).
Take `CC(C)CN([C@H](CO)CCCCNC(=O)[C@H](Cc1c[nH]c2ccccc12)NC(=O)N1CCOCC1)S(=O)(=O)c1ccc(N)cc1` [Example 170, (2S,2′S) 2-N-(4-Aminobenzenesulfonyl)-2-N-isobutyl-6-N-[N′α-(4-morpholinecarbonyl)-S-tryptophanyl]-2,6-diaminohexanol]: the Ki came to 1.1 nM.
